Reference: patent US9938273B2 (Plexxikon Inc., priority 2015, dated 2018)

Target: T1, FLT3-D835Y (Homo sapiens, UniProt P36888, D835Y)
T1 construct: purchased Invitrogen PV3967
T1 sequence (P36888 27-993 D835Y): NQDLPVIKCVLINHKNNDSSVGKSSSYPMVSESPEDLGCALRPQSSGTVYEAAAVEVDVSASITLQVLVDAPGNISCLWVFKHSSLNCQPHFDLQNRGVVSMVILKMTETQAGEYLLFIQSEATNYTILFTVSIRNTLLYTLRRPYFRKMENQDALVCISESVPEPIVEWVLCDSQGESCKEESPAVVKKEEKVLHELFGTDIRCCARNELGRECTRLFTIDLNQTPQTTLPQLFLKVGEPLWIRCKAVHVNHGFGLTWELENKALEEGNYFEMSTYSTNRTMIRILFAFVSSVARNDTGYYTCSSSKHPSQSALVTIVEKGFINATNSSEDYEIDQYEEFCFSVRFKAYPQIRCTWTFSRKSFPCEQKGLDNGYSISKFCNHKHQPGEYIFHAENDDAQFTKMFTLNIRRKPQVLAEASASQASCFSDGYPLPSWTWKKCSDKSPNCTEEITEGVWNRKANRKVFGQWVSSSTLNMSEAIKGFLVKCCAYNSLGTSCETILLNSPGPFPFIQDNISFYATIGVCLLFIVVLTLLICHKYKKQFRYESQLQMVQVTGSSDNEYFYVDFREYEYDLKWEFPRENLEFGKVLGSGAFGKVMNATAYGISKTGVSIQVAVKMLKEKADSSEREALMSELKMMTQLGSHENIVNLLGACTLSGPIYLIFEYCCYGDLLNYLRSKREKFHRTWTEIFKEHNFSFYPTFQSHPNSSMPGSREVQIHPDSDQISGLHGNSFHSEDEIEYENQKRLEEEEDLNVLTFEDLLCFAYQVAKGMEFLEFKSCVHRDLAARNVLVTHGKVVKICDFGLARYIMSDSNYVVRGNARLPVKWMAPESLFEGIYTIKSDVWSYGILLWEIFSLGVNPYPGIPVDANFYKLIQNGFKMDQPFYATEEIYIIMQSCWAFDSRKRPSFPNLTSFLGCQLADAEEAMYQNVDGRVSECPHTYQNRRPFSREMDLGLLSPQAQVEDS
Experiment: AlphaScreen kinase assay with recombinant enzyme, FLT3-D835Y
Assay type: biochemical
Conditions: 8pt, GMean
Method in brief: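 Tyrosine phosphorylation of biotin-poly(Glu4-Tyr) substrate by recombinant enzyme is detected with PY20 acceptor and streptavidin donor beads after room-temperature incubations of 20 and 60 min. IC50 values were derived at a final 10 μM (FLT3-D835Y, FLT3-ITD) or 100 μM (c-KIT).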

Structure (SMILES) | IC50
CNC1CCN(C(=O)c2cccc(-c3cnc4[nH]c(-c5ccnc(OC)c5)cc4c3)n2)C1 (stereo not drawn) [Compound P-0060, [6-[2-(2-methoxy-4-pyridyl)-1H-pyrrolo[2,3-b]pyridin-5-yl]-2-pyridyl]-[3-(methylamino)pyrrolidin-1-yl]methanone] | 0.0001 to 10 µM
CC(C)(C#N)NC(=O)c1cccc(-c2cnc3[nH]c(-c4cncnc4)cc3c2)n1 [Compound P-0195, N-(1-cyano-1-methyl-ethyl)-6-(2-pyrimidin-5-yl-1H-pyrrolo[2,3-b]pyridin-5-yl)pyridine-2-carboxamide] | 0.0001 to 10 µM
CC1(N)CCN(C(=O)c2cccc(-c3cnc4[nH]c(-c5ccccc5)cc4c3)n2)C1 (stereo not drawn) [Compound P-0078, (3-amino-3-methyl-pyrrolidin-1-yl)-[6-(2-phenyl-1H-pyrrolo[2,3-b]pyridin-5-yl)-2-pyridyl]methanone] | 0.0001 to 10 µM
CC(C)(C#N)NC(=O)c1cccc(-c2cnc3[nH]c(-c4ccc(C5(C#N)CC5)cc4)cc3c2)n1 [Compound P-0194, 6-[2-[4-(1-cyanocyclopropyl)phenyl]-1H-pyrrolo[2,3-b]pyridin-5-yl]-N-(1-cyano-1-methyl-ethyl)pyridine-2-carboxamide] | 0.0001 to 10 µM
O=S(=O)(NC1CC1)c1cccc(-c2cnc3[nH]c(C#CC4CCCCC4)cc3c2)c1 [Compound P-0010, 3-[2-(2-cyclohexylethynyl)-1H-pyrrolo[2,3-b]pyridin-5-yl]-N-cyclopropyl-benzenesulfonamide] | 50 to 100 µM
CNC1CCN(S(=O)(=O)c2cccc(-c3cnc4[nH]c(-c5ccccc5)cc4c3)n2)C1 (stereo not drawn) [Compound P-0063, N-methyl-1-[[6-(2-phenyl-1H-pyrrolo[2,3-b]pyridin-5-yl)-2-pyridyl]sulfonyl]pyrrolidin-3-amine] | 0.0001 to 10 µM
CC(C)(C#N)NC(=O)c1cccc(-c2cnc3[nH]c(C4=CCS(=O)(=O)CC4)cc3c2)n1 [Compound P-0186, N-(1-cyano-1-methyl-ethyl)-6-[2-(1,1-dioxo-3,6-dihydro-2H-thiopyran-4-yl)-1H-pyrrolo[2,3-b]pyridin-5-yl]pyridine-2-carboxamide] | 0.0001 to 10 µM
O=C(c1cccc(-c2cnc3[nH]c(-c4ccccc4)cc3c2)n1)N1CCC(C(F)(F)F)C1 (stereo not drawn) [Compound P-0103, [6-(2-phenyl-1H-pyrrolo[2,3-b]pyridin-5-yl)-2-pyridyl]-[3-(trifluoromethyl)pyrrolidin-1-yl]methanone] | 0.0001 to 10 µM
CNC1CCN(C(=O)c2cccc(-c3cnc4[nH]c(C5=CCC(C)(C)CC5)cc4c3)n2)C1 (stereo not drawn) [Compound P-0070, [6-[2-(4,4-dimethylcyclohexen-1-yl)-1H-pyrrolo[2,3-b]pyridin-5-yl]-2-pyridyl]-[3-(methylamino)pyrrolidin-1-yl]methanone] | 0.0001 to 10 µM
O=C(c1cccc(-c2cnc3[nH]c(-c4ccccc4)cc3c2)n1)N1CC(F)(F)C1 [Compound P-0090, (3,3-difluoroazetidin-1-yl)-[6-(2-phenyl-1H-pyrrolo[2,3-b]pyridin-5-yl)-2-pyridyl]methanone] | 0.0001 to 10 µM
O=C(c1cccc(-c2cnc3[nH]c(-c4ccccc4)cc3c2)n1)N1CCC(NC2CC2)C1 (stereo not drawn) [Compound P-0085, [3-(cyclopropylamino)pyrrolidin-1-yl]-[6-(2-phenyl-1H-pyrrolo[2,3-b]pyridin-5-yl)-2-pyridyl]methanone] | 0.0001 to 10 µM
CN(C)C1CCN(C(=O)c2cccc(-c3cnc4[nH]c(-c5ccccc5)cc4c3)n2)C1 (stereo not drawn) [Compound P-0104, [3-(dimethylamino)pyrrolidin-1-yl]-[6-(2-phenyl-1H-pyrrolo[2,3-b]pyridin-5-yl)-2-pyridyl]methanone] | 0.0001 to 10 µM
O=S(=O)(NC1CC1)c1cccc(-c2cnc3[nH]c(C#CCO)cc3c2)c1 [Compound P-0008, N-cyclopropyl-3-[2-(3-hydroxyprop-1-ynyl)-1H-pyrrolo[2,3-b]pyridin-5-yl]benzenesulfonamide] | 0.0001 to 10 µM
NC1CCN(S(=O)(=O)c2cccc(-c3cnc4[nH]c(-c5ccccc5)cc4c3)n2)CC1 [Compound P-0073, 1-[[6-(2-phenyl-1H-pyrrolo[2,3-b]pyridin-5-yl)-2-pyridyl]sulfonyl]piperidin-4-amine] | 0.0001 to 10 µM
CONC(=O)c1cccc(-c2cnc3[nH]c(-c4ccccc4)cc3c2)c1 [Compound P-0003, N-methoxy-3-(2-phenyl-1H-pyrrolo[2,3-b]pyridin-5-yl)benzamide] | 0.0001 to 10 µM
CCCOc1ncc(-c2cc3cc(-c4cccc(C(=O)NC(C)(C)C#N)n4)cnc3[nH]2)cn1 [Compound P-0206, N-(1-cyano-1-methyl-ethyl)-6-[2-(2-propoxypyrimidin-5-yl)-1H-pyrrolo[2,3-b]pyridin-5-yl]pyridine-2-carboxamide] | 0.0001 to 10 µM
CNC(=O)Nc1ccc(-c2cnc3[nH]c(-c4ccccc4)cc3c2)cc1 [Compound P-0006, 1-methyl-3-[4-(2-phenyl-1H-pyrrolo[2,3-b]pyridin-5-yl)phenyl]urea] | 0.0001 to 10 µM
O=S(=O)(NC1CNC1)c1cccc(-c2cnc3[nH]c(-c4ccccc4)cc3c2)n1 [Compound P-0071, N-(azetidin-3-yl)-6-(2-phenyl-1H-pyrrolo[2,3-b]pyridin-5-yl)pyridine-2-sulfonamide] | 0.0001 to 10 µM
O=S(=O)(NC1CCNCC1)c1cccc(-c2cnc3[nH]c(-c4ccccc4)cc3c2)n1 [Compound P-0086, 6-(2-phenyl-1H-pyrrolo[2,3-b]pyridin-5-yl)-N-(4-piperidyl)pyridine-2-sulfonamide] | 0.0001 to 10 µM
CC(C)(C#N)NC(=O)c1cccc(-c2cnc3[nH]c(-c4cnn(CC(F)(F)F)c4)cc3c2)n1 [Compound P-0193, N-(1-cyano-1-methyl-ethyl)-6-[2-[1-(2,2,2-trifluoroethyl)pyrazol-4-yl]-1H-pyrrolo[2,3-b]pyridin-5-yl]pyridine-2-carboxamide] | 0.0001 to 10 µM
NC1CCC(NS(=O)(=O)c2cccc(-c3cnc4[nH]c(-c5ccccc5)cc4c3)n2)CC1 (stereo not drawn) [Compound P-0088, N-(4-aminocyclohexyl)-6-(2-phenyl-1H-pyrrolo[2,3-b]pyridin-5-yl)pyridine-2-sulfonamide] | 0.0001 to 10 µM
CC(C)(C#N)NC(=O)c1cccc(-c2cnc3[nH]c(-c4cnc(C(F)(F)F)nc4)cc3c2)n1 [Compound P-0204, N-(1-cyano-1-methyl-ethyl)-6-[2-[2-(trifluoromethyl)pyrimidin-5-yl]-1H-pyrrolo[2,3-b]pyridin-5-yl]pyridine-2-carboxamide] | 0.0001 to 10 µM
CN1CC(NC(=O)c2cccc(-c3cnc4[nH]c(-c5ccccc5)cc4c3)n2)C1 [Compound P-0075, N-(1-methylazetidin-3-yl)-6-(2-phenyl-1H-pyrrolo[2,3-b]pyridin-5-yl)pyridine-2-carboxamide] | 0.0001 to 10 µM
O=C(Nc1cccc(-c2cnc3[nH]c(-c4ccccc4)cc3c2)n1)C1CNC1 [Compound P-0084, N-[6-(2-phenyl-1H-pyrrolo[2,3-b]pyridin-5-yl)-2-pyridyl]azetidine-3-carboxamide] | 0.0001 to 10 µM
NC1CCC(NC(=O)c2cccc(-c3cnc4[nH]c(-c5ccccc5)cc4c3)n2)CC1 (stereo not drawn) [Compound P-0018, N-(4-aminocyclohexyl)-6-(2-phenyl-1H-pyrrolo[2,3-b]pyridin-5-yl)pyridine-2-carboxamide] | 0.0001 to 10 µM
NC1CCN(C(=O)c2cccc(-c3cnc4[nH]c(-c5ccccc5)cc4c3)n2)CC1 [Compound P-0013, (4-amino-1-piperidyl)-[6-(2-phenyl-1H-pyrrolo[2,3-b]pyridin-5-yl)-2-pyridyl]methanone] | 0.0001 to 10 µM
N[C@H]1CCN(C(=O)c2ncc(-c3cnc4[nH]c(-c5ccccc5)cc4c3)s2)C1 [Compound P-0054, [(3S)-3-aminopyrrolidin-1-yl]-[5-(2-phenyl-1H-pyrrolo[2,3-b]pyridin-5-yl)thiazol-2-yl]methanone] | 0.0001 to 10 µM
Cc1nn(C(C)C)cc1-c1[nH]c2ncc(-c3cccc(C(=O)NC(C)(C)C#N)n3)cc2c1Cl [Compound P-0192] | 0.0001 to 10 µM
CC(=O)NC1CCN(C(=O)c2cccc(-c3cnc4[nH]c(-c5ccccc5)cc4c3)n2)CC1 [Compound P-0020, N-[1-[6-(2-phenyl-1H-pyrrolo[2,3-b]pyridin-5-yl)pyridine-2-carbonyl]-4-piperidyl]acetamide] | 0.0001 to 10 µM
CC(C)(C#N)NC(=O)c1cccc(-c2cnc3[nH]c(-c4cscn4)cc3c2)n1 [Compound P-0167, N-(1-cyano-1-methyl-ethyl)-6-(2-thiazol-4-yl-1H-pyrrolo[2,3-b]pyridin-5-yl)pyridine-2-carboxamide] | 0.0001 to 10 µM
